Results as given in ChEMBL document CHEMBL1201862, “PubChem BioAssay data set” (2004).
Values joined by “and” are separate entries in the source; they are usually repeats but may differ in a detail not shown here. Equal entries are not always repeated.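 Exposure lasted 48 hours, with cells grown in 96-well plates and compounds tested at five concentrations. The concentration for 50% growth inhibition is given as GI50.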 Active and inactive are the calls of the source. Rule as the data show it: active = GI50 up to about 1.1 µM and inactive = higher.

How the values were obtained:
Experiment in all cases: NCI tumour cell line growth inhibition, 48 h
[1] = test system: T47D
[2] = test system: DU-145
[3] = test system: Malme-3M
[4] = test system: DMS-114
[5] = test system: HL-60
[6] = test system: MCF7
[7] = test system: UO-31
[8] = test system: SR
[9] = test system: HOP-92
[10] = test system: SF-539
[11] = test system: OVCAR-8
[12] = test system: XF498
[13] = test system: LOX IMVI
[14] = test system: BT-549
[15] = test system: SNB-19
[16] = test system: LXFL 529
[17] = test system: ACHN
[18] = test system: SNB-78
[19] = test system: U-251
[20] = test system: HT-29
[21] = test system: NCI-H226
[22] = test system: SN12C
[23] = test system: SF-268
[24] = test system: PC-3
[25] = test system: SW-620
[26] = test system: MDA-MB-435
[27] = test system: SK-OV-3
[28] = test system: SNB-75
[29] = test system: SK-MEL-2
[30] = test system: NCI-H460
[31] = test system: SK-MEL-28
[32] = test system: NCI-H23
[33] = test system: TK-10
[34] = test system: M19-MEL
[35] = test system: RXF 631
[36] = test system: MDA-N
[37] = test system: UACC-62
[38] = test system: SK-MEL-5
[39] = test system: HCT-116
[40] = test system: A549
[41] = test system: DMS-273
[42] = test system: COLO 205
[43] = test system: M14
[44] = test system: HOP-62
[45] = test system: DLD-1
[46] = test system: KM-20L2
[47] = test system: HCT-15
[48] = test system: NCI/ADR-RES
[49] = test system: SF-295
[50] = test system: OVCAR-3
[51] = test system: HCC 2998
[52] = test system: A498
[53] = test system: IGROV-1
[54] = test system: RXF 393
[55] = test system: HOP-18
[56] = test system: OVCAR-4
[57] = test system: UACC-257
[58] = test system: Hs-578T
[59] = test system: NCI-H522
[60] = test system: 786-0
[61] = test system: MDA-MB-231
[62] = test system: EKVX
[63] = test system: CAKI-1

C=C1C(=O)OC2/C=C(\CO)C(OC(C)=O)CC(O)/C(C)=C/C(OC(=O)C(C)CC)C12 (stereo not drawn)
GI50 [1]: 15.7 µM (inactive)
GI50 [2]: 19.8 µM (inactive)
GI50 [3]: 13.5 µM (inactive) and 15.3 µM (inactive)
GI50 [4]: 23.6 µM (inactive)
GI50 [5]: 5.86 µM (inactive) and 4.97 µM (inactive)
GI50 [6]: 12.9 µM (inactive)
GI50 [7]: 87.1 µM (inactive) and 65.5 µM (inactive)
GI50 [8]: 8 µM (inactive)
GI50 [9]: 18.5 µM (inactive) and 21.7 µM (inactive)
GI50 [10]: 24.8 µM (inactive) and 19.2 µM (inactive)
GI50 [11]: 21.7 µM (inactive) and 17.7 µM (inactive)
GI50 [12]: 15.8 µM (inactive)
GI50 [13]: 18.8 µM (inactive) and 13.7 µM (inactive)
GI50 [14]: 19.4 µM (inactive)
GI50 [15]: 50.1 µM (inactive) and 75.7 µM (inactive)
GI50 [16]: 13.9 µM (inactive)
GI50 [17]: 26.2 µM (inactive) and 23.7 µM (inactive)
GI50 [18]: 16.3 µM (inactive)
GI50 [19]: 30.1 µM (inactive) and 26.9 µM (inactive)
GI50 [20]: 16.3 µM (inactive) and 21 µM (inactive)
GI50 [21]: 29.6 µM (inactive)
GI50 [22]: 18.2 µM (inactive) and 20.2 µM (inactive)
GI50 [23]: 28.9 µM (inactive) and 19.7 µM (inactive)
GI50 [24]: 39.2 µM (inactive)
GI50 [25]: 11.8 µM (inactive) and 21.5 µM (inactive)
GI50 [26]: 20.3 µM (inactive)
GI50 [27]: > 100 µM (inactive)
GI50 [28]: 24.3 µM (inactive)
GI50 [29]: 17.5 µM (inactive) and 17.1 µM (inactive)
GI50 [30]: 23.3 µM (inactive) and 38.6 µM (inactive)
GI50 [31]: 18.3 µM (inactive) and 26.9 µM (inactive)
GI50 [32]: 24.2 µM (inactive) and 17.2 µM (inactive)
GI50 [33]: 17.6 µM (inactive) and 19.3 µM (inactive)
GI50 [34]: 16.8 µM (inactive)
GI50 [35]: 33.5 µM (inactive)
GI50 [36]: 18.3 µM (inactive)
GI50 [37]: 19.4 µM (inactive) and 17.5 µM (inactive)
GI50 [38]: 18.8 µM (inactive) and 17 µM (inactive)
GI50 [39]: 14 µM (inactive) and 19.7 µM (inactive)
GI50 [40]: 45.8 µM (inactive) and 37.3 µM (inactive)
GI50 [41]: 19.1 µM (inactive)
GI50 [42]: 14 µM (inactive) and 11.8 µM (inactive)
GI50 [43]: 16.7 µM (inactive) and 15.8 µM (inactive)
GI50 [44]: > 100 µM (inactive)
GI50 [45]: 12.9 µM (inactive)
GI50 [46]: 22.4 µM (inactive)
GI50 [47]: 38.6 µM and 30.2 µM
GI50 [48]: > 100 µM (inactive)
GI50 [49]: > 100 µM (inactive)
GI50 [50]: 18.5 µM (inactive) and 16.5 µM (inactive)
GI50 [51]: 22.4 µM (inactive) and 15.6 µM (inactive)
GI50 [52]: 33 µM (inactive) and 28.2 µM (inactive)
GI50 [53]: 38.4 µM (inactive) and 40 µM (inactive)
GI50 [54]: 23.1 µM (inactive) and 24.4 µM (inactive)
GI50 [55]: 23.8 µM (inactive)
GI50 [56]: 33.5 µM (inactive) and 17.3 µM (inactive)
GI50 [57]: 15.2 µM (inactive) and 18 µM (inactive)
GI50 [58]: 36.9 µM (inactive)
GI50 [59]: 4.57 µM (inactive) and 3.4 µM (inactive)
GI50 [60]: 14.8 µM (inactive) and 21.8 µM (inactive)
GI50 [61]: 17.3 µM (inactive)
GI50 [62]: 25.5 µM (inactive) and 25.1 µM (inactive)
GI50 [63]: 27.5 µM (inactive) and 24.2 µM (inactive)
